Patent US7083932B1, “Nucleic acid molecules encoding peptides having pronociceptive properties” (Euroscreen, s.a., priority 1995, dated 2006)
pIC50: −log10 of the molar value. Counter-ions that a name gives are not always drawn. Ends that are not written are not given here.

Assays:
[1] = test system: mice; assay: antagonism of nociceptin-induced stimulation of horizontal locomotor activity; format: in vivo
[2] = test system: mice; assay: hole board test; format: in vivo; settings: 5 mg/kg s.c., tested 15 minutes later; saline 150±8
[3] = molecular target: ORL1 receptor (Homo sapiens, UniProt P41146); assay: cell-based
[4] = test system: CHO(ORL1−) cells; format: cell-based

Chain of ORL1 receptor (P41146 whole entry): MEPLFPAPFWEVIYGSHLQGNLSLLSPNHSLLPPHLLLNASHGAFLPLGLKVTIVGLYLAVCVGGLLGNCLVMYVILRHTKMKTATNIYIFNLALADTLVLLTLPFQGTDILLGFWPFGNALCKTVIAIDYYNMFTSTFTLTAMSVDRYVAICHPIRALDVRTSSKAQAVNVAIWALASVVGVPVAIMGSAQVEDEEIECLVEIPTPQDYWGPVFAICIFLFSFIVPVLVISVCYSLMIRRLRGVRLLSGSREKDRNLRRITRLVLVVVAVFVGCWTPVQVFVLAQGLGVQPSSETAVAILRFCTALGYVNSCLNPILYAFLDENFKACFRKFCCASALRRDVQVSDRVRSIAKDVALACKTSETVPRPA

C=CCN1CC[C@]23c4c5ccc(O)c4O[C@H]2C(=O)CC[C@@]3(O)[C@H]1C5 [Naloxone, Naloxone hydrochloride]
effect on motor-stimulant effect of 100 ng nociceptin ([1]; 0.0–4.5 mg/kg s.c., 10 minutes before i.c.v. nociceptin, first 10 minutes of testing): did not suppress

O=C(CCCN1CCC(O)(c2ccc(Cl)cc2)CC1)c1ccc(F)cc1 [haloperidol]
antagonism of nociceptin stimulation of locomotor activity ([1]; increasing doses of antagonist): antagonized

CN1CC[C@]23c4c5ccc(O)c4O[C@H]2[C@@H](O)C=C[C@H]3[C@H]1C5 [morphin]
Number of explored holes during the 20 minutes period [2]: 24±2

YGGFTGARKSARKLANQ [^1Tyr analogue]
pIC50 [3]: 9.00 | maximal inhibition of forskolin-induced cAMP accumulation [3]: > 90% | activity on cyclase in wild type cells [4]: totally inactive
